Results on one molecule are retold here after BindingDB's records for doi:10.1021/acs.jmedchem.3c01371 (University of Santiago De Compostela, 2023).

As a reminder, the IC50 is the concentration that inhibits the measured activity by half. Low values mean higher potency, high ones lower potency.

The target in this assay is T1, Vitamin D3 receptor (Homo sapiens, UniProt P11473).
T1 sequence (P11473 whole entry): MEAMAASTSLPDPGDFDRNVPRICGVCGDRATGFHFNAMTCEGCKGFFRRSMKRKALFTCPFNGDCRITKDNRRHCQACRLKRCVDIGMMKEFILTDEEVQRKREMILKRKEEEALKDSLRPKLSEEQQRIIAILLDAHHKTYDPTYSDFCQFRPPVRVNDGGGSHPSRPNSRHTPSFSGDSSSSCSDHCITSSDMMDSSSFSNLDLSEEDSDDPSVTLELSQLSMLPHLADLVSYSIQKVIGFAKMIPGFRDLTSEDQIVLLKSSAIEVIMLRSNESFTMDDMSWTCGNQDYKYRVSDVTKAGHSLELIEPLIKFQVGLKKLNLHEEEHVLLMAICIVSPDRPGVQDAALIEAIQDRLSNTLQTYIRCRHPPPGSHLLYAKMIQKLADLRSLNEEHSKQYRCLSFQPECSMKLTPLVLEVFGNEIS
The experiment in a line: Binding affinity to full length human VDR by Competitive binding assay.

For `C=C1/C(=C\C=C(/C)c2cccc(CCC#CCC(O)(C(F)(F)F)C(F)(F)F)c2)C[C@@H](O)C[C@@H]1O`, the IC50 was 4.6 nM.
